Experimental findings from ChEMBL document CHEMBL1147180, “Quantitative structure-selectivity relationship for M2 selectivity between M1 and M2 of piperidinyl piperidine derivatives as muscarinic antagonists” (Bioorg Med Chem Lett, 2007) are described below.

Molecules are shown by their SMILES. pKi: −log10 of the molar value.

In assay [1] the target is Muscarinic acetylcholine receptors; M1 & M2 (Homo sapiens) (UniProt P11229+P08172). As to the kind of experiment: Selectivity for muscarinic M1 receptor over muscarinic M2 receptor. Format: protein assay.
Assay [2] deals with T1, Muscarinic acetylcholine receptor M1 (Homo sapiens, UniProt P11229).
T1 sequence (P11229 whole entry): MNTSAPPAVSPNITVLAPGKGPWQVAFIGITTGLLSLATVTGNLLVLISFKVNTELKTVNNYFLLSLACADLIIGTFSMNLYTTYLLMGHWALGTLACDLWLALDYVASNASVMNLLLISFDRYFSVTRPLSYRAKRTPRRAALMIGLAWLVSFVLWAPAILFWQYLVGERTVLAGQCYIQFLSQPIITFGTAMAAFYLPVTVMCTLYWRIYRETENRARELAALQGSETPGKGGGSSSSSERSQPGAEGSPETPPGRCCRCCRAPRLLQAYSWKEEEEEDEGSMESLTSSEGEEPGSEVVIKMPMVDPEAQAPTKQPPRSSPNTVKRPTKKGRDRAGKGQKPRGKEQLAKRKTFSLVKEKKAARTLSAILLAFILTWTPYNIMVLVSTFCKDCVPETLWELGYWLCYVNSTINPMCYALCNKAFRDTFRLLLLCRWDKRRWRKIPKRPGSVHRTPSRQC
As to the kind of experiment: Binding affinity to muscarinic M1 receptor.

For `C=C(c1ccc(S(=O)(=O)c2ccc(OC)cc2)cc1)C1CCN(C2CCN(C(=O)CCC)CC2)CC1`, in assay [1], the Ratio pKi turned out to be 2.04. Usually pKi stands for −log10 of the Ki, conventionally taken in molar units. The low end stands for a large Ki, the high end for a small Ki. In turn, `C=C(c1ccc(S(=O)(=O)c2ccc(OC)cc2)cc1)C1CCN(C2CCN(S(=O)(=O)Cc3ccccc3)CC2)CC1` showed a pKi in assay [2] of 7.48. Moreover, in assay [1], the Ratio pKi is 1.36. On the same counts, the results for `C=C(c1ccc(S(=O)(=O)c2ccc(OC)cc2)cc1)C1CCN(C2CCN(C(=O)OCCCC)CC2)CC1` are 8.01 and 1.45. On the same counts, the results for `C=C(c1ccc(S(=O)(=O)c2ccc(OC)cc2)cc1)C1CCN(C2CCN(C(=O)C(C)C)CC2)CC1` are 6.93 and 1.72.

`C=C(c1ccc(S(=O)(=O)c2ccc(OC)cc2)cc1)C1CCN(C2CCN(C(=O)C3CC3)CC2)CC1` showed a negative-log Ki (pKi) in assay [2] of 7.17. The Ratio pKi in assay [1] came to 2.42.

`C=C(c1ccc(S(=O)(=O)c2ccc(OC)cc2)cc1)C1CCN(C2CCN(C(=O)OCC(C)C)CC2)CC1` had a pKi in assay [2] of 7.98. For the same molecule, the Ratio pKi in assay [1] was 1.54. On the same counts, the results for `C=C(c1ccc(S(=O)(=O)c2ccc(OC)cc2)cc1)C1CCN(C2CCN(C(=O)OCc3ccccc3)CC2)CC1` are 7.97 and 1.38. As to `C=C(c1ccc(S(=O)(=O)c2ccc(OC)cc2)cc1)C1CCN(C2CCN(S(=O)(=O)c3ccccc3)CC2)CC1`, in assay [2], the pKi is 7.43. The Ratio pKi in assay [1] came out at 2.02.

For `C=C(c1ccc(S(=O)(=O)c2ccc(OC)cc2)cc1)C1CCN(C2CCN(C(=O)CC)CC2)CC1`, the pKi in assay [2] was 7.22. Further, the Ratio pKi in assay [1] turned out to be 1.2. In the same order, the values of `C=C(c1ccc(S(=O)(=O)c2ccc(OC)cc2)cc1)C1CCN(C2CCN(C(=O)OCCC)CC2)CC1` are 7.39 and 1.84.

Consider `C=C(c1ccc(S(=O)(=O)c2ccc(OC)cc2)cc1)C1CCN(C2CCN(C(=O)OC(C)C)CC2)CC1`, for which the pKi in assay [2] was 7.83. Moreover, the Ratio pKi in assay [1] stood at 1.56.

As to `C=C(c1ccc(S(=O)(=O)c2ccc(OC)cc2)cc1)C1CCN(C2CCN(S(=O)(=O)CCC)CC2)CC1`, the Ratio pKi in assay [1] worked out at 1.95. In assay [2], `C=C(c1ccc(S(=O)(=O)c2ccc(OC)cc2)cc1)C1CCN(C2CCN(C(=O)OC)CC2)CC1` had a pKi of 7.22. The Ratio pKi in assay [1] was 1.78.

For the molecule `C=C(c1ccc(S(=O)(=O)c2ccc(OC)cc2)cc1)C1CCN(C2CCN(S(=O)(=O)CC)CC2)CC1`, the negative logarithm of the Ki (pKi) in assay [2] was 7.13. The Ratio pKi in assay [1] was determined as 2.21. In the same order, the values of `C=C(c1ccc(S(=O)(=O)c2ccc(OC)cc2)cc1)C1CCN(C2CCN(C(=O)Cc3ccccc3)CC2)CC1` are 7.02 and 1.5. As for `C=C(c1ccc(S(=O)(=O)c2ccc(OC)cc2)cc1)C1CCN(C2CCNCC2)CC1`, the Ratio pKi in assay [1] worked out at 0.903. On to `C=C(c1ccc(S(=O)(=O)c2ccc(OC)cc2)cc1)C1CCN(C2CCN(S(=O)(=O)C(C)C)CC2)CC1`, for which, in assay [2], the pKi is 7.50. Also, in assay [1], the Ratio pKi came to 2.3. `C=C(c1ccc(S(=O)(=O)c2ccc(OC)cc2)cc1)C1CCN(C2CCN(C(=O)OCC)CC2)CC1`: the Ratio pKi in assay [1] was 1.77. Regarding `C=C(c1ccc(S(=O)(=O)c2ccc(OC)cc2)cc1)C1CCN(C2CCN(S(=O)(=O)CCCC)CC2)CC1`, the pKi in assay [2] was 7.24. Besides, the Ratio pKi in assay [1] came to 2.18.
